Measured values taken from publication PMC5238504 (Scientific Reports, 2017).

What was measured:
M5 muscarinic receptor = biological target: T1, M5 muscarinic receptor (Homo sapiens, UniProt P08912); test: slowing of [3H]NMS dissociation by cold NMS, CHO membranes; format: binding; conditions: second site; allosteric; apparent affinity for the receptor-[3H]NMS complex; slope factor nH fitted; pH […] °C, […] NaCl, […] MgCl2
T1 construct: gene CHRM5; expressed in CHO cells, membranes; species printed only for M2 and M3
T1 sequence (P08912 1-532): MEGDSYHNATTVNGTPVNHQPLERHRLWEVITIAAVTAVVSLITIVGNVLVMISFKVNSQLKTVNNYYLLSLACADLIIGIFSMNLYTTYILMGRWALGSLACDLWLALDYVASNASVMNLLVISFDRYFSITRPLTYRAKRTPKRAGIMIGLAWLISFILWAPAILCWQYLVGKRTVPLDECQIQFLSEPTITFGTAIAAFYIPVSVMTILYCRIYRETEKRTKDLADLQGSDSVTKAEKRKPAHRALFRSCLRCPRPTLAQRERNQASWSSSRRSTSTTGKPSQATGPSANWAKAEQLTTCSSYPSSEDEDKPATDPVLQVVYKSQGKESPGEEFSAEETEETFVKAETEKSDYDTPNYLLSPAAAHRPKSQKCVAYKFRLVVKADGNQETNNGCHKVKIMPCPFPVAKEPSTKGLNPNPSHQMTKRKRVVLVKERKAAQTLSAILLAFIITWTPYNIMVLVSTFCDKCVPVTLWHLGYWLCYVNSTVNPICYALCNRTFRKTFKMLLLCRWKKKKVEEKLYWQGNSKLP

[1] = biological target: T2, M2 muscarinic receptor (M2 wt) (Homo sapiens, UniProt P08172); test: as above; format: binding; conditions: second site; allosteric; apparent affinity for the receptor-[3H]NMS complex; slope factor nH fitted; pH […] °C, […] NaCl, […] MgCl2
T2 construct: gene CHRM2
T2 sequence (P08172 1-466): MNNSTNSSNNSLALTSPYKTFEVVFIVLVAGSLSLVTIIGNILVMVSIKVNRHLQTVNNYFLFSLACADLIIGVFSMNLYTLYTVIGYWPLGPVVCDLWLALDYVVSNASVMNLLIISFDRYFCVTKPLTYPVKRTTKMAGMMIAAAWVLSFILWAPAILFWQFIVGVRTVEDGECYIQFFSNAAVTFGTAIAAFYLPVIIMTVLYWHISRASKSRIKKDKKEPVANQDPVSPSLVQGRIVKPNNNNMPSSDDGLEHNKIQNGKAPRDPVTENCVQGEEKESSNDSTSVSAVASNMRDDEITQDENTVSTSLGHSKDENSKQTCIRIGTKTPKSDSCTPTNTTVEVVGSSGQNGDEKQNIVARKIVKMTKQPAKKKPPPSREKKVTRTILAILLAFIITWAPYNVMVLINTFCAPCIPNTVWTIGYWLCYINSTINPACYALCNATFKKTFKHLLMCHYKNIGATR
From the text: slowing of [3H]NMS dissociation by cold NMS, CHO membranes on M2 muscarinic receptor (M2 wt)

## C[N+]1(C)[C@@H]2C[C@@H](OC(=O)[C@H](CO)c3ccccc3)C[C@H]1[C@@H]1O[C@@H]12 [N-methylscopolamine]
M5 muscarinic receptor
  NMS / pKA: 3.86 ± 0.03 negative logarithm
[1]
  NMS / pKA: 3.62 ± 0.03 negative logarithm
